Data on 34 molecules can be found in patent publication US20260042764A1, “COMPOSITIONS AND METHODS FOR INHIBITION OF KRAS” (TheRas, Inc., priority 2022, published 2026).

By IC50 is commonly meant the point on the concentration scale where inhibition reaches its midpoint. High values mean lower potency, low ones higher potency.

For the assay, the target named is T1, Avi-KRAS G12C (2-169) GTP/RAF1 RBD-3xFLAG (51-131) (Homo sapiens, UniProt P01116, G12C).
T1 construct: Avi-KRAS G12C (2-169)
T1 sequence (P01116 2-169 isoform P01116-2 G12C): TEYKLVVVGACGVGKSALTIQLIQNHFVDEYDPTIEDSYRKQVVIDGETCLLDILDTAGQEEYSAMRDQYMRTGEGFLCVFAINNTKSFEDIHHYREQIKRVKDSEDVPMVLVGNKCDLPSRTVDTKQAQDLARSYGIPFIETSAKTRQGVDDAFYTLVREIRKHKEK
As to the kind of experiment: Raf1-KRAS G12C-GTP disruption HTRF assay (Biological Example 3). The assay is classed as binding. Conditions: KRAS G12C, GTP-loaded. Put shortly: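 Compounds were titrated 10-point, 3-fold from 30 μM against preformed KRAS-GTP:RAF1 RBD (51-131) complexes at 50 nM, using KRAS 2-169 as WT, G12C, G12D or G12V. After 1 h at room temperature in Tris pH 7.5 buffer with MgCl2 and 10% DMSO, time-resolved fluorescence was read. Results are percent activity versus DMSO.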
On the technique in general: TR-FRET usually uses a lanthanide donor and a delayed reading to cut background.
Turning to `CCN(c1nc(OC[C@@]23CCCN2C[C@H](F)C3)nc2c(F)c(-c3ccc(F)c4sc(N)c(C#N)c34)c(C(F)(F)F)cc12)[C@H]1CCN(C(=O)OC)C1` [Compound 394], the IC50 lay in the range of 100 to 1000 nM. In turn, `[2H]C1([2H])O[C@@H]2C[C@H]1N(c1nc(OC[C@@]34CCCN3C[C@H](F)C4)nc3c(F)c(-c4ccc(F)c5sc(N)c(C#N)c45)c(C(F)(F)F)cc13)C2` [Compound 371] returned an IC50 of 1000 to 10000 nM.

With `Cc1c(C(=O)N2CCOCC2)nn2c1CN(c1nc(OCC34CCCN3CC(F)C4)nc3c(F)c(-c4ccc(F)c5sc(N)c(C#N)c45)c(C(F)(F)F)cc13)CC2` (stereo not shown) [Compound 741], the half-inhibitory concentration (IC50) was in the range of 100 to 1000 nM. Take `CCN(c1nc(OC[C@@]23CCCN2C[C@H](F)C3)nc2c(F)c(-c3ccc(F)c4sc(N)c(C#N)c34)c(C(F)(F)F)cc12)[C@H]1CCN(C(=O)C2CN(C(C)=O)C2)C1` (atropisomer, axis not shown) [Compound 638]: the IC50 was no more than 100 nM. The same measure for `CCN(c1nc(OC[C@@]23CCCN2C[C@H](F)C3)nc2c(F)c(-c3ccc(F)c4sc(N)c(C#N)c34)c(C(F)(F)F)cc12)[C@H]1CCN(C(=O)N2CCN(C(C)=O)CC2)C1` (atropisomer, axis not shown) [Compound 619]: 100 to 1000 nM. The same measure for `CCC(=O)N1CC[C@@H](N(C)c2nc(OC[C@@]34CCCN3C[C@H](F)C4)nc3c(F)c(-c4ccc(F)c5sc(N)c(C#N)c45)c(C(F)(F)F)cc23)[C@H]1C` (atropisomer, axis not shown) [Compound 335]: 100 to 1000 nM; for `CCN(c1nc(OC[C@@]23CCCN2C[C@H](F)C3)nc2c(F)c(-c3ccc(F)c4sc(N)c(C#N)c34)c(C(F)(F)F)cc12)[C@H]1CCN(C(=O)[C@H]2CCO2)C1` (atropisomer, axis not shown) [Compound 577]: no more than 100 nM; for `CC(=O)N1CC[C@H](N(c2nc(OC[C@@]34CCCN3C[C@H](F)C4)nc3c(F)c(-c4ccc(F)c5sc(N)c(C#N)c45)c(C(F)(F)F)cc23)C2CC2)C1` (atropisomer, axis not shown) [Compound 608]: 100 to 1000 nM.

In turn, `CCN(c1nc(OC[C@@]23CCCN2C[C@H](F)C3)nc2c(F)c(-c3ccc(F)c4sc(N)c(C#N)c34)c(C(F)(F)F)cc12)[C@H]1CC(=O)N(C2CC2)C1` (atropisomer, axis not shown) [Compound 615] gave an IC50 of no more than 100 nM. Then `CC(=O)N1CC[C@H](N(CCF)c2nc(OC[C@@]34CCCN3C[C@H](F)C4)nc3c(F)c(-c4ccc(F)c5sc(N)c(C#N)c45)c(C(F)(F)F)cc23)C1` (atropisomer, axis not shown) [Compound 622], with 100 to 1000 nM; and `CCN1C[C@@H](N(C)c2nc(OC[C@@]34CCCN3C[C@H](F)C4)nc3c(F)c(-c4ccc(F)c5sc(N)c(C#N)c45)c(C(F)(F)F)cc23)CC1=O` (atropisomer, axis not shown) [Compound 636], with 100 to 1000 nM. Then `N#Cc1c(N)sc2c(F)ccc(-c3c(C(F)(F)F)cc4c(N(C5CC5)[C@H]5CCS(=O)(=O)C5)nc(OC[C@@]56CCCN5C[C@H](F)C6)nc4c3F)c12` [Compound 702], with greater than 10000 nM; and `CCN(c1nc(OC[C@@]23CCCN2C[C@H](F)C3)nc2c(F)c(-c3ccc(F)c4sc(N)c(C#N)c34)c(C(F)(F)F)cc12)[C@H]1CCN(C(=O)C2C[C@@H]2F)C1` (stereo partly shown) [Compound 692], with no more than 100 nM; and `CCN(c1nc(OC[C@@]23CCCN2C[C@H](F)C3)nc2c(F)c(-c3ccc(F)c4sc(N)c(C#N)c34)c(C(F)(F)F)cc12)[C@H]1CCN(C(=O)CC(F)F)C1` (atropisomer, axis not shown) [Compound 611], with no more than 100 nM. `CCN(c1nc(OC[C@@]23CCCN2C[C@H](F)C3)nc2c(F)c(-c3ccc(F)c4sc(N)c(C#N)c34)c(C(F)(F)F)cc12)[C@H]1CCN(C(=O)N(C)C)[C@@H]1C` (atropisomer, axis not shown) [Compound 749] returned an IC50 of no more than 100 nM. Then `CCN(c1nc(OC[C@@]23CCCN2C[C@H](F)C3)nc2c(F)c(-c3ccc(F)c4sc(N)c(C#N)c34)c(C(F)(F)F)cc12)[C@H]1C[C@@H]2CN(C)C(=O)N2C1` (atropisomer, axis not shown) [Compound 605], with 100 to 1000 nM; and `CCN(c1nc(OC[C@@]23CCCN2C[C@H](F)C3)nc2c(F)c(-c3ccc(F)c4sc(N)c(C#N)c34)c(C(F)(F)F)cc12)[C@H]1C[C@@H](C)N(C(=O)[C@H]2CCO2)C1` (atropisomer, axis not shown) [Compound 752], with 100 to 1000 nM; and `CCN(c1nc(OC[C@@]23CCCN2C[C@H](F)C3)nc2c(F)c(-c3ccc(F)c4sc(N)c(C#N)c34)c(C(F)(F)F)cc12)[C@H]1CCN(C(=O)O[C@@H]2CCOC2)C1` (atropisomer, axis not shown) [Compound 683], with no more than 100 nM. `CCN(c1nc(OC[C@@]23CCCN2C[C@H](F)C3)nc2c(F)c(-c3ccc(F)c4sc(N)c(C#N)c34)c(C(F)(F)F)cc12)[C@H]1CCN(C(=O)[C@@H]2C[C@@H]2C)C1` (atropisomer, axis not shown) [Compound 689] came in with an IC50 of 100 to 1000 nM. Then `CCN(c1nc(OC[C@@]23CCCN2C[C@H](F)C3)nc2c(F)c(-c3ccc(F)c4sc(N)c(C#N)c34)c(C(F)(F)F)cc12)[C@H]1CC(=O)N(CC(F)F)C1` (atropisomer, axis not shown) [Compound 613], with no more than 100 nM; and `CCN(c1nc(OC[C@@]23CCCN2C[C@H](F)C3)nc2c(F)c(-c3ccc(F)c4sc(N)c(C#N)c34)c(C(F)(F)F)cc12)[C@H]1CC(=O)N(C)C1` (atropisomer, axis not shown) [Compound 614], with 100 to 1000 nM; and `CCN(c1nc(OC[C@@]23CCCN2C[C@H](F)C3)nc2c(F)c(-c3ccc(F)c4sc(N)c(C#N)c34)c(C(F)(F)F)cc12)[C@H]1CCN(C(=O)c2ccns2)C1` (atropisomer, axis not shown) [Compound 726], with 100 to 1000 nM. `CCN(c1nc(OC[C@]23CCCN2C[C@H](F)C3)nc2c(F)c(-c3ccc(F)c4sc(N)c(C#N)c34)c(C(F)(F)F)cc12)[C@H]1CCN(C(=O)C(C)C)C1` [Compound 705]: the IC50 is 100 to 1000 nM. The same measure for `CCN(c1nc(OC[C@@]23CCCN2C[C@H](F)C3)nc2c(F)c(-c3ccc(F)c4sc(N)c(C#N)c34)c(C(F)(F)F)cc12)[C@H]1C[C@H]2CCC(=O)N2C1` (atropisomer, axis not shown; (aR)) [Compound 573, 2-amino-4-((S)-4-(ethyl((2S,7aR)-5-oxohexahydro-1H-pyrrolizin-2-yl)amino)-8-fluoro-2-(((2R,7aS)-2-fluorotetrahydro-1H-pyrrolizin-7a(5H)-yl)methoxy)-6-(trifluoromethyl)quinazolin-7-yl)-7-fluorobenzo[b]thiophene-3-carbonitrile]: no more than 100 nM; for `CCN(c1nc(OC[C@@]23CCCN2C[C@H](F)C3)nc2c(F)c(-c3ccc(F)c4sc(N)c(C#N)c34)c(C(F)(F)F)cc12)[C@H]1CCN(C(=O)N2CC(OC)C2)C1` (atropisomer, axis not shown) [Compound 607]: no more than 100 nM. Consider `N#Cc1c(N)sc2c(F)ccc(-c3c(C(F)(F)F)cc4c(N5CCn6nc(C(=O)N7CCOCC7)cc6C5)nc(OCC56CCCN5CC(F)C6)nc4c3F)c12` (stereo not shown) [Compound 646], for which the IC50 lay in the range of 100 to 1000 nM. The same measure for `CCN(c1nc(OC[C@@]23CCCN2C[C@H](F)C3)nc2c(F)c(-c3ccc(F)c4sc(N)c(C#N)c34)c(C(F)(F)F)cc12)[C@H]1CCN(C(=O)[C@@H]2CCO2)C1` (atropisomer, axis not shown) [Compound 603]: no more than 100 nM. Then `C[C@@H]1[C@H](N(C)c2nc(OC[C@@]34CCCN3C[C@H](F)C4)nc3c(F)c(-c4ccc(F)c5sc(N)c(C#N)c45)c(C(F)(F)F)cc23)CCN1C(=O)C1CC1` (atropisomer, axis not shown) [Compound 333], with 100 to 1000 nM; and `C[C@H](c1cccnc1N)N(C)c1nc(OC[C@@]23CCCN2C[C@H](F)C3)nc2c(F)c(-c3ccc(F)c4sc(N)c(C#N)c34)c(C(F)(F)F)cc12` (atropisomer, axis not shown) [Compound 600], with no more than 100 nM; and `C=C(C)C(=O)N1CC[C@H](N(CC)c2nc(OC[C@@]34CCCN3C[C@H](F)C4)nc3c(F)c(-c4ccc(F)c5sc(N)c(C#N)c45)c(C(F)(F)F)cc23)C1` (atropisomer, axis not shown) [Compound 673], with no more than 100 nM.

With `CCN(c1nc(OC[C@@]23CCCN2C[C@H](F)C3)nc2c(F)c(-c3ccc(F)c4sc(N)c(C#N)c34)c(C(F)(F)F)cc12)[C@@H]1CC(=O)N(C2CC2)C1` (atropisomer, axis not shown) [Compound 703], the IC50 is 1000 to 10000 nM. `CCN(c1nc(OC[C@@H]2C[C@@H](OC)CN2C)nc2c(F)c(-c3ccc(F)c4sc(N)c(C#N)c34)c(C(F)(F)F)cc12)[C@H]1CCN(C(=O)C(C)C)C1` [Compound 706]: the IC50 was in the range of 1000 to 10000 nM.

Regarding `CCN(c1nc(OC[C@@]23CCCN2C[C@H](F)C3)nc2c(F)c(-c3ccc(F)c4sc(N)c(C#N)c34)c(C(F)(F)F)cc12)[C@H]1CCN(C(=O)C2CC2(F)F)C1` (stereo partly shown) [Compound 581], the IC50 is no more than 100 nM. Then `Cc1c(C(=O)N2CCCC2)nn2c1CN(c1nc(OCC34CCCN3CC(F)C4)nc3c(F)c(-c4ccc(F)c5sc(N)c(C#N)c45)c(C(F)(F)F)cc13)CC2` (stereo not shown) [Compound 744], with 100 to 1000 nM.
